One may read the pIC50 as the negative decadic logarithm of the IC50, by convention in mol/L.

The target of experiment [1] is T1, human FGF-1 (flg) receptor tyrosine kinase (Homo sapiens, UniProt P11362).
T1 construct: a fragment of DNA that codes for the intracellular tyrosine kinase domain; made in house; host or cells: Sf9 insect cells (baculovirus), cell lysate
Nature of the experiment: FGF receptor tyrosine kinase assay. The following applies: read-out: Inhibition of Protein Tyrosine Kinases, FGF, IC50. Format: biochemical. The method, boiled down: (§1)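 Intracellular kinase domains expressed in baculovirus-infected SF9 cells; crude lysate used as enzyme. Inhibitor preincubated 10 min at 25 °C with lysate in pH 7.0 Hepes buffer with 10 mM MnCl2 and poly(Glu-Tyr) 4:1, then γ-32P-ATP (50 μM ATP) added for 10 min at 25 °C. TCA-precipitated 32P on filters counted, no-enzyme background subtracted.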

A further experiment has as its system V-src kinase. Nature of the experiment: V-src kinase assay. Type of experiment: biochemical. Conditions: at 50 μM. An outline of the steps:
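Baculovirus-expressed v-src or c-src, immunopurified on antibody-coated latex beads, phosphorylated poly GluTyr with 5 μM ATP including [32P]-ATP in Tris pH 7.5/MgCl2. Reaction ran 10 min at room temperature, TCA/pyrophosphate quench, then filtered. Incorporated label counted by liquid scintillation and compared with solvent control.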

For the next experiment, the system named is PDGF receptor. Nature of the experiment: PDGF receptor autophosphorylation in RASMC. Format: cell-based, rat. The following applies: PDGF-BB 30 ng/mL, read-out: Inhibition of PDGF Stimulated Receptor Auto Phosphorylation (IC50).
The target of experiment [2] is T2, mouse PDGF-β receptor tyrosine kinase (Mus musculus, UniProt P05622).
T2 construct: a fragment of DNA that codes for the intracellular tyrosine kinase domain; made in house; host or cells: Sf9 insect cells (baculovirus), cell lysate
T2 sequence (P05622 599-961 limits assumed): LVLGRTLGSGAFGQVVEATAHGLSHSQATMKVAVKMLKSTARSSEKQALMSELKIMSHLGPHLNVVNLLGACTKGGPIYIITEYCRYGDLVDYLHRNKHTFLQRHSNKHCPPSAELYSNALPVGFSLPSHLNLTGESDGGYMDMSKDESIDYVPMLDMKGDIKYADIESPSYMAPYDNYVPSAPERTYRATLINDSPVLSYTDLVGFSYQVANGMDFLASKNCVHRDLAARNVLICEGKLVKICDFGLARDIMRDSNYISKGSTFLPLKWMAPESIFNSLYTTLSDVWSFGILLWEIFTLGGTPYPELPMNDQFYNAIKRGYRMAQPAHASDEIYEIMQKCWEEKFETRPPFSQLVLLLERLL
Nature of the experiment: PDGF receptor tyrosine kinase assay. Type of experiment: biochemical. Conditions: read-out: Inhibition of Protein Tyrosine Kinases, PDGF, IC50. An outline of the steps:
as §1

The test system of experiment [3] is Rat aorta smooth muscle cells (RASMC). The experiment can be described thus: [3H]-Thymidine incorporation assay in RASMC. Type of experiment: cell-based. Conditions: read-out: Inhibition of Growth Factor Stimulated Uptake of [3H]-thymidine (IC50). The procedure: Cell Culture Rat aorta smooth muscle cells (RASMC) were isolated from the thoracic aorta of rats and explanted according to the method of Ross, J. Cell. Biol., 30:172-186 (1971). Cells were grown in Dulbecco's modified Eagle's medium (DMEM, Gibco) containing 10% fetal calf serum (FBS, Hyclone, Logan, Utah), 1% glutamine (Gibco) and 1% penicillin/streptomycin (Gibco). Cells were identified as smooth muscle cells by their "hill and valley" growth pattern and by fluorescent staining with a monoclonal antibody specific for SMC […] (Sigma). RASMC were used between passages 5 and 20 for all experiments. Test compounds were prepared in dimethylsulfoxide (DMSO) in order to achieve consistency in the vehicle and to ensure compound solubility. Appropriate DMSO controls were simultaneously evaluated with the test compounds. […] RASMC were plated into a 24-well plate (30,000 cells/well) in DMEM with 10% FBS. After 4 days, cells reached confluence and were made quiescent by incubation in DMEM/F12 medium (Gibco) containing 0.2% FBS for another 2 days. […] […] The acid-insoluble fraction was lysed in 0.75 mL 0.25N NaOH and the radioactivity determined by liquid scintillation counting. IC50 values were determined graphically.
(In general: Incorporation of labelled thymidine or its analogues reports DNA synthesis.)

For another experiment, the system named is Streptococcus pneumoniae. Nature of the experiment: standard in vitro assays of antibacterial activity. Conditions: Gram+ bacterial strain. Format: cell-based. The text has this: These compounds are potent inhibitors of one or more of the protein kinases, PDGF, FGF, EGF, V-src, and C-src. The invention compounds are thus useful in treating atherosclerosis, restenosis, and cancer. Specific tumors to be treated with the compounds include small-cell lung carcinoma such as that described in An. Rev. Respir. Dis., 142:554-556 (1990); human breast cancer as described in Cancer Research, 52:4773-4778 (1992); low grade human bladder carcinomas of the type described in Cancer Research, 52:1457-1462 (1992); human colorectal cancer as discussed in J. Clin. Invest., 91:53-60 (1993); and in J. Surg. Res., 54:293-294 (1993). The compounds also are useful as antibiotics against bacteria such as Streptococcus pneumoniae. […] The compounds additionally are useful as herbicides against a wide variety of undesirable plants such as broad leaf weeds and grasses.

In the next experiment the target is T3, C-src kinase (Homo sapiens, UniProt P12931).
T3 construct: made in house; host or cells: baculovirus-infected insect cells
T3 sequence (P12931 whole entry): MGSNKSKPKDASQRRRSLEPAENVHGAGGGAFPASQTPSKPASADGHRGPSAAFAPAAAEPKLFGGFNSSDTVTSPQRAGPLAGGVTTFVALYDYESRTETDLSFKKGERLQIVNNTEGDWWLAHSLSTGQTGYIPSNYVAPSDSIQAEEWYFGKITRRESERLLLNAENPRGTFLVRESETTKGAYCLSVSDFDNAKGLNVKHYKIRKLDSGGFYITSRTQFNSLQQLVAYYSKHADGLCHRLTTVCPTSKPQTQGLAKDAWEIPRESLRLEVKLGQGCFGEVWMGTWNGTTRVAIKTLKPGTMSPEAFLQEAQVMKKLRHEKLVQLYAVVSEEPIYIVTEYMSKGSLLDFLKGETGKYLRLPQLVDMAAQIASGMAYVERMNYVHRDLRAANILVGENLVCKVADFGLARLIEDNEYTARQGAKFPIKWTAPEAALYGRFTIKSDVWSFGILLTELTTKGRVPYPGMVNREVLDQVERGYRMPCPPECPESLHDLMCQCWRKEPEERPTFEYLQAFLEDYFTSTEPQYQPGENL
Nature of the experiment: C-src kinase assay. Format: biochemical. Conditions: read-out: Inhibition of Protein Tyrosine Kinases, C-src, IC50. The method, boiled down: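 Baculovirus-expressed c-src immunopurified on antibody-coated latex beads, assayed in 40 mM Tris pH 7.5, 5 mM MgCl2 with poly GluTyr substrate and 5 μM ATP plus 32P-ATP. Reaction 10 min at room temperature, TCA-quenched, filtered; incorporated label counted by scintillation.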

The target of experiment [4] is T4, Human EGF receptor tyrosine kinase (Homo sapiens, UniProt P00533).
T4 construct: isolated from A431 epidermoid carcinoma cells; endogenous in cells; host or cells: A431 epidermoid carcinoma cells (Triton lysate, wheat germ agglutinin eluate)
T4 sequence (P00533 25-1210): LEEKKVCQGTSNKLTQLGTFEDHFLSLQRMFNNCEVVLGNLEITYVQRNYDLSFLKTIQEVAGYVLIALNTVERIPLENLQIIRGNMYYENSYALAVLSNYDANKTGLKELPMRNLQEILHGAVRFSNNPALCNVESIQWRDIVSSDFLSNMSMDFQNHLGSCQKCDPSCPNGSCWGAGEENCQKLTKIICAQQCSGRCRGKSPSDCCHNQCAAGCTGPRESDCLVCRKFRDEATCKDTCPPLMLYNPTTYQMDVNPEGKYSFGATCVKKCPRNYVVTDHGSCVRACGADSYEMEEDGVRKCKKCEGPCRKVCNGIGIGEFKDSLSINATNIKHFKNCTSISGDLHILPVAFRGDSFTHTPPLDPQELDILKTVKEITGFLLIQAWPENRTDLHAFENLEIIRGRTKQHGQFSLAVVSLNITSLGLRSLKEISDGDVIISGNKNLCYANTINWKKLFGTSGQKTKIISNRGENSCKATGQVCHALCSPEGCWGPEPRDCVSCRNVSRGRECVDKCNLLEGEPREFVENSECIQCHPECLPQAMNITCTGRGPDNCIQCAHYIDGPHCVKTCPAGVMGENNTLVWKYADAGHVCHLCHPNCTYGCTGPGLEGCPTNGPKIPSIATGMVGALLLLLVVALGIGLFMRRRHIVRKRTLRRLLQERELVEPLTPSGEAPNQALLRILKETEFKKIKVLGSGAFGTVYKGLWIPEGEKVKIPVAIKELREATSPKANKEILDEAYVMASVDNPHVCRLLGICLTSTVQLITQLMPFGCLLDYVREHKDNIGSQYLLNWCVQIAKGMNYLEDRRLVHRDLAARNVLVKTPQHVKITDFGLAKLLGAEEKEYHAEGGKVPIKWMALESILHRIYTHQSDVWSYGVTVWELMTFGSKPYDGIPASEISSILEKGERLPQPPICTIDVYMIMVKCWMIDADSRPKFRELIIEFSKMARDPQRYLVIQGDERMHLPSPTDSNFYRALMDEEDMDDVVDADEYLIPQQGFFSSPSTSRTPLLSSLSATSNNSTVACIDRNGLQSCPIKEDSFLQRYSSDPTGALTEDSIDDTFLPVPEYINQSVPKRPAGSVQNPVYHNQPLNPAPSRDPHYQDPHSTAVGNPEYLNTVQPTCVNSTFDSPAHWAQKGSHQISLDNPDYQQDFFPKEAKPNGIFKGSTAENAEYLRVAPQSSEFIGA
Nature of the experiment: EGF receptor tyrosine kinase assay. Format: biochemical. The following applies: read-out: Inhibition of Protein Tyrosine Kinases, EGF, IC50. The procedure:
Purification of Epidermal Growth Factor Receptor Tyrosine Kinase
Human EGF receptor tyrosine kinase was isolated from A431 epidermoid carcinoma cells by the following methods. Cells were grown in roller bottles in 50% Delbuco's Modified Eagle and 50% HAM F-12 nutrient media (Gibco) containing 10% fetal calf serum. Approximately 10^9 cells were lysed in two volumes of buffer containing 20 mM 2-(4N-[2-hydroxyethyl]piperazin-1-yl)ethanesulfonic acid, pH 7.4, 5 mM ethylene glycol bis(2-aminoethyl ether)N,N,N',N'-tetraacetic acid, 1% Triton X-100, 10% glycerol, 0.1 mM sodium orthovanadate, 5 mM sodium fluoride, 4 mM pyrophosphate, 4 mM benzamide, 1 mM dithiothreitol, 80 μg/mL aprotinin, 40 μg/mL leupeptin, and 1 mM phenylmethylsulfonyl fluoride. After centrifugation at 25,000×g for 10 minutes, the supernatant was equilibrated for 2 hours at 4° C. with 10 mL of wheat germ agglutinin sepharose that was previously equilibrated with 50 mM Hepes, 10% glycerol, 0.1% Triton X-100 and 150 mM NaCl, pH 7.5, (equilibration buffer). Contaminating proteins were washed from the resin with 1M NaCl in equilibration buffer, and the enzyme was eluted with 0.5M N-acetyl-1-D-glucosamine in equilibration buffer.
Determination of IC50 Values
The reaction was terminated by the addition of 2 mL of 75 mM phosphoric acid and passed through a 2.5-cm phosphocellulose filter disc to bind the peptide. The filter was washed five times with 75 mM phosphoric acid and placed in a vial along with 5 mL of scintillation fluid (Ready gel Beckman).

Each structure is given as a SMILES string. pIC50: −log10 of the molar value. Read-outs that look alike come from different tables or passages of the source. Bounds are passed on as bounds.

T1 sequence (P11362 478-767 limits assumed): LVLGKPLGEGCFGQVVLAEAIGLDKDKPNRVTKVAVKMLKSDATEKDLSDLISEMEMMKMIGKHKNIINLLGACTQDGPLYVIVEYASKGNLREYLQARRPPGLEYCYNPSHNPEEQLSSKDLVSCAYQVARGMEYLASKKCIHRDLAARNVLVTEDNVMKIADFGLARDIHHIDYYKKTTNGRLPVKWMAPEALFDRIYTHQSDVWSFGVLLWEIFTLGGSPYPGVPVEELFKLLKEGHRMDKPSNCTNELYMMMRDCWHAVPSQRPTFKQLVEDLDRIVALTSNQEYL

Consider `CC(C)(C)NC(=O)Nc1nc2nc(N)ncc2cc1-c1c(Cl)cccc1Cl` [Example 3, 1-[2-Amino-6-(2,6-dichlorophenyl)-pyrido[2,3-d]pyrimidin-7-yl]-3-tert-butylurea], for which the negative logarithm of the IC50 (pIC50) is 6.85 in experiment [1]; 6.01 in the experiment on PDGF receptor; 5.90 in experiment [2]; 6.05 in experiment [3] (FGF stimulated); 5.57 in experiment [3] (PDGF stimulated). Further, in the experiment on V-src kinase, the “Inhibition of Protein Tyrosine Kinases, V-src, % Inhibition” value worked out at 46.8%.
Consider `CCCCNc1nc2nc(N)ncc2cc1-c1ccccc1` [Example 9, N^7 -Butyl-6-phenyl-pyrido[2,3-d]pyrimidine-2,7-diamine], for which, in the experiment on Streptococcus pneumoniae, the “activity against Streptococcus pneumoniae” value is recorded as “exhibited activity”. Besides, the pIC50 in experiment [1] is 4.98; at C-src kinase, 4.74; in experiment [2] it was 4.60.
Consider `Nc1cc2nc(N)c(-c3c(Cl)cccc3Cl)cc2cn1` [Example 18, 3-(2,6-Dichlorophenyl)-[1,6]-naphthyridine-2,7-diamine], for which, in the experiment with Streptococcus pneumoniae, the “activity against Streptococcus pneumoniae” value was “exhibited activity”. Besides, the pIC50 is 5.92 in experiment [1], 6.29 at C-src kinase, 4.74 in experiment [4] and 4.67 in experiment [2]. For the same compound, the “Inhibition of Protein Tyrosine Kinases, V-src, % Inhibition” value with V-src kinase was determined as 21.4%.
On to `CN1CCN(CCCNc2ncc3cc(-c4c(Cl)cccc4Cl)c(NC(=O)NC(C)(C)C)nc3n2)CC1` [Example 52, 1-tert-Butyl-3-{6-(2,6-dichlorophenyl)-2-[3-(4-methyl-piperazin-1-yl)-propylamino]-pyrido[2,3-d]pyrimidin-7-yl}-urea], for which the pIC50 is 6.62 in the experiment with PDGF receptor, 6.40 in experiment [3] (FGF stimulated) and 6.35 in experiment [3] (PDGF stimulated).
Turning to `CCN(CC)CCCCNc1ncc2cc(-c3c(Cl)cccc3Cl)c(NC(=O)NC(C)(C)C)nc2n1` [Example 123, 1-tert-Butyl-3-[6-(2,6-dichlorophenyl)-2-(4-diethyl-amino-butylamino)-pyrido[2,3-d]pyrimidin-7-yl]-urea], the pIC50 is 7.54 on C-src kinase, 6.53 in the experiment with PDGF receptor, 6.49 in experiment [3] (FGF stimulated) and over 6.52 in experiment [3] (PDGF stimulated).
Regarding `CCNC(=O)Nc1nc2nc(NCCCCN(CC)CC)ncc2cc1-c1c(Cl)cccc1Cl` [Example 124, 1-[6-(2,6-Dichlorophenyl)-2-(4-diethylamino-butyl-amino)-pyrido[2,3-d]pyrimidin-7-yl]-3-ethyl-urea], the negative logarithm of the IC50 (pIC50) is 6.61 with PDGF receptor, 6.03 in experiment [3] (FGF stimulated) and 6.26 in experiment [3] (PDGF stimulated).
